Experimental data: article PMC3764137, “Sulphamoylated 2-Methoxyestradiol Analogues Induce Apoptosis in Adenocarcinoma Cell Lines” (PLoS ONE, 2013)
“Also recorded” adds a separate entry of the source.

Legend:
Assay type in all cases: cell-based, human
[1] = system: caspase-6; test: Caspase 6 colorimetric assay; conditions: 0.5 μM, 24 h
Protocol: (§1) Possible activation of caspase 3, -6 and -8 was investigated by means of caspase 3, caspase 6 and FLICE/caspase 8 colorimetric kits, respectively. Cells (1,000,000) were seeded with an overnight attachment policy. After 24 h of exposure to 0.5 μM of the sulphamoylated 2ME2 analogues, cells were detached with trypsin and centrifuged at 13,000× g. Cells (500,000) were resuspended in 50 µl of chilled cell lysis buffer and incubated on ice for 10 min. Cells were centrifuged at 10,000×g for a min. Supernatant was transferred to a fresh tube and put on ice. After determination of the protein concentration using the bicinchoninic acid (BCA) protein assay (Thermo Fisher Scientific, Johannesburg, South Africa), 100 µg protein/50 µl cell lysis buffer was mixed with 50 µl 2X reaction buffer (containing 10 mM Dithiothreitol (DTT)). Ac-Asp-Glu-Val-Asp-p-nitroanilide (Ac-DEVD-pNA) (5 µl of 4 mM) (caspase-3-specific substrate), or 5 µl 4 mM […] (Ac-VEID-pNA) (caspase-6-specific substrate), or 5 µl 4 mM Ac-Ile-Glu-Thr-Asp-p-nitroanilide (Ac-IETD-pNA) (caspase-8-specific substrate) was added and the mixture was incubated at 37°C for 120 min (200 µM final concentration). Absorbance was determined at 405 nm on the ELx800 Universal Microplate Reader available from Bio-Tek Instruments Inc. (Vermont, United States of America).

[2] = system: HeLa cells; test: Cytotoxicity: lactate dehydrogenase assay; conditions: 24 h, compared to vehicle-treated cells
Protocol: Lactate dehydrogenase (LDH) is a soluble cytosolic enzyme that catalyzes the interconversion of lactate and pyruvate. Cells release LDH during injury or cell damage, following the loss of membrane integrity consequential from either apoptosis or necrosis. LDH activity can therefore be used as an indicator of cell membrane integrity and serves as a general mean to assess for cytotoxicity resulting from exposure to chemical compounds. Cells were seeded in 96 well plates at a cell density of 5,000 cells per well (incubated at 37°C at 5% CO2). After 24 h, cells were exposed to 0.1–25 μM sulphamoylated 2ME2 analogues including vehicle-treated controls and incubated for 24 h at 37°C. Subsequently, the 200 μl medium was transferred and centrifuged at 5,000 rpm for 10 min. Supernatant (10 μl) was then transferred to an optimally clear 96 well plate. LDH reaction mix (100 μl mixed according to the supplier's manual instructions) was added to the medium. After 90 min incubation at room temperature, the absorbance was read at 460 nm (reference wavelength of 630 nm) with an ELx800 Universal Microplate Reader from Bio-Tek Instruments Inc. (Vermont, United States of America).

[3] = system: HeLa cells; test: Double immunofluorescence of intracellular microtubules; conditions: 24 h, 0.189 μM ESE-15-one, 0.5 μM EMBS and ESE-16, 1μM colchicine
Protocol: (§2) In order to visualize the effect of the 2ME2 analogues on microtubule dynamics and integrity, a double immunofluorescence technique using antibodies against tyrosinated and detyrsosinated tubulin was conducted as described by Paturle-Lafanechère et al. (2004). HeLa and MDA-MB-231 cells were seeded onto sterilized coverslips and allowed to grow to 80% confluency for 48 h. Cells were exposed to 0.189 μM ESE-15-one, 0.5 μM EMBS and ESE-16 along with DMSO (negative control) and 1μM colchicine as a positive control for 24 h. Cells were permeablised permeabilized with warmed OPT buffer (80 mmol/L Pipes, […], […], 0.5% Triton X-100 and glycerol 10%, pH 6.8), followed by fixation in ice-cold methanol at −20°C and were subsequently incubated with the primary antibody cocktail (PBS containing anti-detyrosinated tubulin (L4), anti-[…], BSA 0.3%, tween 0.1%). After incubation, cells were incubated with the secondary antibodies, namely Alexa 488 (Invitrogen) and Cy3 (Jackson ImmunoResearch laboratories). Samples were visualized using a Zeiss AxioImager Z1 microscope controlled by Axiovision softwared (Carl Zeiss) (X63 oil objective). Images were captured using an Ocra R2 N/B camera (Hamamatsu) and assessed for microtubule integrity and ratio of tyrosinated to detyrosinated tubulin.

[4] = system: MDA-MB-231 cells; test: as above; conditions: MDA-MB-231, 24 h; 0.189 μM ESE-15-one, 0.5 μM EMBS and ESE-16, 1μM colchicine
Protocol: as §2

[5] = system: HeLa cells; test: Mitochondrial membrane potential assay (Mitocapture, flow cytometry); conditions: 0.5 μM analogues (2-methoxyestradiol-bis-sulphamate 0.55 μM), 24 h
Protocol: Cells (500,000) were seeded with an overnight attachment policy. After 24 h of exposure to 0.5 μM of the sulphamoylated 2ME2 analogues, cells were detached using trypsin and centrifuged at 13,000×g.

[6] = system: caspase 3; test: Caspase 3 colorimetric assay in MDA-MB-231 cells; conditions: MDA-MB-231, 0.5 μM, 24 h
Protocol: as §1

| Structure (SMILES) | caspase-6 activity ratio compared to vehicle-treated cells [1] | LDH levels / LDH release [2] | microtubule integrity [3] | microtubule integrity [4] | cells with reduced mitochondrial potential [5] | caspase 3 activity [6] |
| --- | --- | --- | --- | --- | --- | --- |
| CCc1cc2c(cc1OS(N)(=O)=O)CC[C@@H]1C2CC[C@]2(C)[C@@H](OS(N)(=O)=O)CC[C@@H]12 (stereo partly drawn) [EMBS, (8R, 13S, 14S, 17S)-2-ethyl-13-methyl-7,8,9, 11, 12,13, 14, 15, 16, 17-decahydro-6H-cyclopenta [a] phenanthrane-3, 17-diyl bis (sulphamate)] | 3.1 | No statistically significant increase in LDH levels | microtubule abrogation; also recorded: fragmented microtubules | detyrosinated microtubule fragments |  |  |
| CCc1cc2c(cc1OS(N)(=O)=O)CC[C@@H]1[C@@H]2CC[C@]2(C)C(=O)C=C[C@@H]12 [ESE-15-one, 2-Ethyl-3-O-sulphamoyl-estra-1,3,5 (10) 15-tetraene-3-ol-17one] |  | No statistically significant increase in LDH levels | microtubule abrogation; also recorded: altered microtubule morphology | detyrosinated microtubule fragments | 72% | most affected |
